The record followed here is publication PMC6010119 (Journal of Enzyme Inhibition and Medicinal Chemistry, 2017).

One assay deals with EGFR (Homo sapiens, UniProt P00533). Format: biochemical. The note with it: test concentration not given; conclusion says EGFR in A549 cancer cells.
The test system of a further assay is A549 lung cancer cells. Kind of assay: cells. The note with it: Homo sapiens, A549, read-out: IC50 on A549.

EGFR, sequence (P00533 25-1210): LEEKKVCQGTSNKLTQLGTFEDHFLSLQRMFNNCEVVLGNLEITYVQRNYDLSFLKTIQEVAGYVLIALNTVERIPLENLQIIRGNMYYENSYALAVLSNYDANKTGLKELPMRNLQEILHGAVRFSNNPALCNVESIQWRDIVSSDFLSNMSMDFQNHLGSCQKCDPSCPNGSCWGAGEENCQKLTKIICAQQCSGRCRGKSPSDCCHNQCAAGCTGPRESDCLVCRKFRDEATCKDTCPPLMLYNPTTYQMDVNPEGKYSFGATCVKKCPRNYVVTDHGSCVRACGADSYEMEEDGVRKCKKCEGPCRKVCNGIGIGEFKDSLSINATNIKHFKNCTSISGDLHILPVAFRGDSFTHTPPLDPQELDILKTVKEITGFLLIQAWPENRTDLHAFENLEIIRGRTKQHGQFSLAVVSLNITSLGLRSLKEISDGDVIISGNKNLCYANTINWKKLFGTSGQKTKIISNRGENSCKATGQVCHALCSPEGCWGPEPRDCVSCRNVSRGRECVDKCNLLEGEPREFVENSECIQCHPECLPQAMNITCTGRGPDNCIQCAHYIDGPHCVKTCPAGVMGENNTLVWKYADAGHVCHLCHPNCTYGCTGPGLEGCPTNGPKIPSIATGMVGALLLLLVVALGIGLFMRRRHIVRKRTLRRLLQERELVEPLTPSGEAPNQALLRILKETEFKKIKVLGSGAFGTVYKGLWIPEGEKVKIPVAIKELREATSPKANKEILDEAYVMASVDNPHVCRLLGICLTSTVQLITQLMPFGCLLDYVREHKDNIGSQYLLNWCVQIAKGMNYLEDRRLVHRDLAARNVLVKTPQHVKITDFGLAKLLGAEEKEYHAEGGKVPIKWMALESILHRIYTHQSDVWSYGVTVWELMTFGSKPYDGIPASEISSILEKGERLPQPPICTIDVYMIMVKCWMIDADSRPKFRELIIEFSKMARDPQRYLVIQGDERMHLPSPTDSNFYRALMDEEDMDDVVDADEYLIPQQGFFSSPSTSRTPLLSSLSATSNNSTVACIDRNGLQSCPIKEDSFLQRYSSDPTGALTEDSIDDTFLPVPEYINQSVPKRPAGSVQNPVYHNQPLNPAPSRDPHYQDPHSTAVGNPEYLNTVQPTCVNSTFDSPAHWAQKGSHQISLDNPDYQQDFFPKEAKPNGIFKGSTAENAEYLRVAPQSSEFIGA

In general, IC50 refers to the concentration that inhibits the measured activity by half. For the molecule `NS(=O)(=O)c1ccc(-n2c(SCC(=O)Nc3ccccc3)nc3cc4ccccc4cc3c2=O)cc1` [Compound 5, 2-(4-Oxo-3-(4-sulfamoylphenyl)-3,4-dihydrobenzo[g]quinazolin-2-ylthio)-N-phenylacetamide], on EGFR, the “% inhibition of EGFR” value was found to be 55.58%. For the same molecule, the IC50 in the assay on A549 lung cancer cells came out at 1017 ± 10 nM.

Regarding `Cc1ccccc1NC(=O)CSc1nc2cc3ccccc3cc2c(=O)n1-c1ccc(S(N)(=O)=O)cc1` [Compound 6, 2-(4-Oxo-3-(4-sulfamoylphenyl)-3,4-dihydrobenzo[g]quinazolin-2-ylthio)-N-o-tolylacetamide], the “% inhibition of EGFR” value at EGFR was determined as 84.31%. Also, the IC50 with A549 lung cancer cells was found to be 105 ± 12 nM.

As to `Cc1cccc(NC(=O)CSc2nc3cc4ccccc4cc3c(=O)n2-c2ccc(S(N)(=O)=O)cc2)c1` [Compound 7, 2-(4-Oxo-3-(4-sulfamoylphenyl)-3,4-dihydrobenzo[g]quinazolin-2-ylthio)-N-m-tolylacetamide], on EGFR, the “% inhibition of EGFR” value came out at 66.85%. Moreover, the concentration for half-maximal inhibition (IC50) with A549 lung cancer cells amounted to 1271 ± 2 nM.

With `Cc1ccc(NC(=O)CSc2nc3cc4ccccc4cc3c(=O)n2-c2ccc(S(N)(=O)=O)cc2)cc1` [Compound 8, 2-(4-Oxo-3-(4-sulfamoylphenyl)-3,4-dihydrobenzo[g]quinazolin-2-ylthio)-N-p-tolylacetamide], the “% inhibition of EGFR” value on EGFR is reported as 90.21%. In addition, the 50% inhibitory concentration (IC50) in the assay on A549 lung cancer cells came out at 220 ± 120 nM.

For the molecule `COc1cc(NC(=O)CSc2nc3cc4ccccc4cc3c(=O)n2-c2ccc(S(N)(=O)=O)cc2)cc(OC)c1OC` [Compound 15, 2-(4-Oxo-3-(4-sulfamoylphenyl)-3,4-dihydrobenzo[g]quinazolin-2-ylthio)-N-(3,4,5-trimethoxyphenyl)acetamide], at EGFR, the “% inhibition of EGFR” value is 58.04%. Besides, in the assay with A549 lung cancer cells, the IC50 is 545 ± 3 nM.

For the molecule `C#Cc1cccc(Nc2ncnc3cc(OCCOC)c(OCCOC)cc23)c1` [Erlotinib, reference compound], in the assay with A549 lung cancer cells, the IC50 was 727 ± 8 nM.
